Like-named read-outs stand apart in the source and are kept apart here.
Key:
Assay in all cases: Test B pre-/postemergence plant response
Type in all cases: in vivo
[1] = tested on: kochia (Kochia scoparia); settings: for pest or weed control at 31 g/ha: 31 g ai/ha; for pest or weed control at 62 g/ha: 62 g ai/ha; for pest or weed control at 125 g/ha: 125 g ai/ha
Method in brief: (§1)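 Visual injury, 0–100 scale (100 = complete control), rated against controls after 13 to 15 days in greenhouse. Pre-emergence: seeds in loam/sand soil, treated at planting. Post-emergence: 1- to 4-leaf plants (2 to 18 cm) in peat/vermiculite medium. Compounds formulated in non-phytotoxic solvent with surfactant.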

[2] = tested on: velvetleaf (Abutilon theophrasti); settings: for pest or weed control at 31 g/ha: 31 g ai/ha; for pest or weed control at 62 g/ha: 62 g ai/ha; for pest or weed control at 125 g/ha: 125 g ai/ha
Method in brief: as §1

[3] = tested on: pigweed (Amaranthus retroflexus); settings: for pest or weed control at 31 g/ha: 31 g ai/ha; for pest or weed control at 62 g/ha: 62 g ai/ha; for pest or weed control at 125 g/ha: 125 g ai/ha
Method in brief: as §1

[4] = tested on: woolly cupgrass (Eriochloa villosa); settings: for pest or weed control at 31 g/ha: 31 g ai/ha; for pest or weed control at 62 g/ha: 62 g ai/ha; for pest or weed control at 125 g/ha: 125 g ai/ha
Method in brief: as §1

[5] = tested on: goosegrass (Eleusine indica); settings: for pest or weed control at 31 g/ha: 31 g ai/ha; for pest or weed control at 62 g/ha: 62 g ai/ha; for pest or weed control at 125 g/ha: 125 g ai/ha
Method in brief: as §1

[6] = tested on: downy bromegrass (Bromus tectorum); settings: for pest or weed control at 31 g/ha: 31 g ai/ha; for pest or weed control at 62 g/ha: 62 g ai/ha; for pest or weed control at 125 g/ha: 125 g ai/ha
Method in brief: as §1

[7] = tested on: large crabgrass (Digitaria sanguinalis); settings: Digitaria sanguinalis, post-emergence, Postemergence, read-out: Plant response rating, Crabgrass, Large
Method in brief: as §1

[8] = Bassia scoparia, pre-emergence, Preemergence, scale 0 to 100 (0 no effect, 100 complete control), read-out: Plant response rating, Kochia
[9] = Preemergence, 250 g ai/ha, 0 to 100 scale
[10] = Abutilon theophrasti, pre-emergence, 360 h, Preemergence, scale 0 to 100 (0 no effect, 100 complete control), read-out: Plant response rating, Velvetleaf
[11] = Amaranthus retroflexus, pre-emergence, Preemergence, scale 0 to 100 (0 no effect, 100 complete control), read-out: Plant response rating, Pigweed
[12] = Eriochloa villosa, pre-emergence, Preemergence, scale 0 to 100 (0 no effect, 100 complete control), read-out: Plant response rating, Cupgrass, Woolly
[13] = Eleusine indica, pre-emergence, Preemergence, scale 0 to 100 (0 no effect, 100 complete control), read-out: Plant response rating, Goosegrass
[14] = Bromus tectorum, pre-emergence, Preemergence, scale 0 to 100 (0 no effect, 100 complete control), read-out: Plant response rating, Bromegrass, Downy

COCCn1c(-c2cc(F)cc(F)c2)ncc(C(=O)C2=C(O)C3CCC(C3)C2=O)c1=O (stereo not shown) [Compound 243, 2-(3,5-difluorophenyl)-5-[(2-hydroxy-4-oxobicyclo[3.2.1]oct-2-en-3-yl)carbonyl]-3-(2-methoxyethyl)-4(3H)-pyrimidinone]
pest or weed control at 31 g/ha ([1]; Bassia scoparia, post-emergence, Postemergence, 0 to 100 scale (0 no effect, 100 complete control), read-out: Plant response rating, Kochia): 85% | pest or weed control at 62 g/ha ([1]; Bassia scoparia, post-emergence, Postemergence, scale 0 to 100 (0 no effect, 100 complete control), read-out: Plant response rating, Kochia): 95% | pest or weed control at 125 g/ha ([1]; Bassia scoparia, post-emergence, Postemergence, scale 0 (no effect) to 100 (complete control), 13 to 15 days, read-out: Plant response rating, Kochia): 100% | pest or weed control at 250 g/ha ([1]; Bassia scoparia, post-emergence, Postemergence, 250 g ai/ha, scale 0 to 100 (0 no effect, 100 complete control), 13 to 15 days, read-out: Plant response rating, Kochia): 100% | pest or weed control at 31 g/ha [1, 8]: 15% | pest or weed control at 62 g/ha [1, 8]: 20% | pest or weed control at 125 g/ha ([1]; Bassia scoparia, pre-emergence, Preemergence, scale 0 to 100, 0 no effect, 100 complete control, read-out: Plant response rating, Kochia): 90% | Kochia plant response rating [1, 9]: 100 | pest or weed control at 31 g/ha ([2]; Abutilon theophrasti, post-emergence, 360 h, Postemergence, 0 to 100 scale (0 no effect, 100 complete control), read-out: Plant response rating, Velvetleaf): 100% | pest or weed control at 62 g/ha ([2]; Abutilon theophrasti, post-emergence, 360 h, Postemergence, scale 0 to 100 (0 no effect, 100 complete control), read-out: Plant response rating, Velvetleaf): 100% | pest or weed control at 125 g/ha ([2]; Abutilon theophrasti, post-emergence, 360 h, Postemergence, scale 0 (no effect) to 100 (complete control), 13 to 15 days, read-out: Plant response rating, Velvetleaf): 100% | pest or weed control at 250 g/ha ([2]; Abutilon theophrasti, post-emergence, 360 h, Postemergence, 250 g ai/ha, scale 0 to 100 (0 no effect, 100 complete control), 13 to 15 days, read-out: Plant response rating, Velvetleaf): 100% | pest or weed control at 31 g/ha [2, 10]: 100% | pest or weed control at 62 g/ha [2, 10]: 100% | pest or weed control at 125 g/ha ([2]; Abutilon theophrasti, pre-emergence, 360 h, Preemergence, scale 0 to 100, 0 no effect, 100 complete control, read-out: Plant response rating, Velvetleaf): 100% | Velvetleaf plant response rating [2, 9]: 100 | pest or weed control at 31 g/ha ([3]; Amaranthus retroflexus, post-emergence, Postemergence, 0 to 100 scale (0 no effect, 100 complete control), read-out: Plant response rating, Pigweed): 85% | pest or weed control at 62 g/ha ([3]; Amaranthus retroflexus, post-emergence, Postemergence, scale 0 to 100 (0 no effect, 100 complete control), read-out: Plant response rating, Pigweed): 100% | pest or weed control at 125 g/ha ([3]; Amaranthus retroflexus, post-emergence, Postemergence, scale 0 (no effect) to 100 (complete control), 13 to 15 days, read-out: Plant response rating, Pigweed): 100% | pest or weed control at 250 g/ha ([3]; Amaranthus retroflexus, post-emergence, Postemergence, 250 g ai/ha, scale 0 to 100 (0 no effect, 100 complete control), 13 to 15 days, read-out: Plant response rating, Pigweed): 100% | pest or weed control at 31 g/ha [3, 11]: 75% | pest or weed control at 62 g/ha [3, 11]: 98% | pest or weed control at 125 g/ha ([3]; Amaranthus retroflexus, pre-emergence, Preemergence, scale 0 to 100, 0 no effect, 100 complete control, read-out: Plant response rating, Pigweed): 100% | Pigweed plant response rating [3, 9]: 100 | pest or weed control at 31 g/ha ([4]; Eriochloa villosa, post-emergence, Postemergence, 0 to 100 scale (0 no effect, 100 complete control), read-out: Plant response rating, Cupgrass, Woolly): 95% | pest or weed control at 62 g/ha ([4]; Eriochloa villosa, post-emergence, Postemergence, scale 0 to 100 (0 no effect, 100 complete control), read-out: Plant response rating, Cupgrass, Woolly): 95% | pest or weed control at 125 g/ha ([4]; Eriochloa villosa, post-emergence, Postemergence, scale 0 (no effect) to 100 (complete control), 13 to 15 days, read-out: Plant response rating, Cupgrass, Woolly): 100% | pest or weed control at 250 g/ha ([4]; Eriochloa villosa, post-emergence, Postemergence, 250 g ai/ha, scale 0 to 100 (0 no effect, 100 complete control), 13 to 15 days, read-out: Plant response rating, Cupgrass, Woolly): 100% | pest or weed control at 31 g/ha [4, 12]: 75% | pest or weed control at 62 g/ha [4, 12]: 95% | pest or weed control at 125 g/ha ([4]; Eriochloa villosa, pre-emergence, Preemergence, scale 0 to 100, 0 no effect, 100 complete control, read-out: Plant response rating, Cupgrass, Woolly): 95% | Cupgrass, Woolly plant response rating [4, 9]: 100 | pest or weed control at 31 g/ha ([5]; Eleusine indica, post-emergence, Postemergence, 0 to 100 scale (0 no effect, 100 complete control), read-out: Plant response rating, Goosegrass): 95% | pest or weed control at 62 g/ha ([5]; Eleusine indica, post-emergence, Postemergence, scale 0 to 100 (0 no effect, 100 complete control), read-out: Plant response rating, Goosegrass): 95% | pest or weed control at 125 g/ha ([5]; Eleusine indica, post-emergence, Postemergence, scale 0 (no effect) to 100 (complete control), 13 to 15 days, read-out: Plant response rating, Goosegrass): 98% | pest or weed control at 250 g/ha ([5]; Eleusine indica, post-emergence, Postemergence, 250 g ai/ha, scale 0 to 100 (0 no effect, 100 complete control), 13 to 15 days, read-out: Plant response rating, Goosegrass): 98% | pest or weed control at 31 g/ha [5, 13]: 98% | pest or weed control at 62 g/ha [5, 13]: 100% | pest or weed control at 125 g/ha ([5]; Eleusine indica, pre-emergence, Preemergence, scale 0 to 100, 0 no effect, 100 complete control, read-out: Plant response rating, Goosegrass): 100% | Goosegrass plant response rating [5, 9]: 100 | pest or weed control at 31 g/ha ([6]; Bromus tectorum, post-emergence, Postemergence, 0 to 100 scale (0 no effect, 100 complete control), read-out: Plant response rating, Bromegrass, Downy): 50% | pest or weed control at 62 g/ha ([6]; Bromus tectorum, post-emergence, Postemergence, scale 0 to 100 (0 no effect, 100 complete control), read-out: Plant response rating, Bromegrass, Downy): 70% | pest or weed control at 125 g/ha ([6]; Bromus tectorum, post-emergence, Postemergence, scale 0 (no effect) to 100 (complete control), 13 to 15 days, read-out: Plant response rating, Bromegrass, Downy): 95% | pest or weed control at 250 g/ha ([6]; Bromus tectorum, post-emergence, Postemergence, 250 g ai/ha, scale 0 to 100 (0 no effect, 100 complete control), 13 to 15 days, read-out: Plant response rating, Bromegrass, Downy): 100% | pest or weed control at 31 g/ha [6, 14]: 0% | pest or weed control at 62 g/ha [6, 14]: 40% | pest or weed control at 125 g/ha ([6]; Bromus tectorum, pre-emergence, Preemergence, scale 0 to 100, 0 no effect, 100 complete control, read-out: Plant response rating, Bromegrass, Downy): 60% | Bromegrass, Downy plant response rating [6, 9]: 70 | pest or weed control at 31 g/ha ([7]; 31 g ai/ha, 0 to 100 scale (0 no effect, 100 complete control)): 95% | pest or weed control at 62 g/ha ([7]; 62 g ai/ha, scale 0 to 100 (0 no effect, 100 complete control)): 100% | pest or weed control at 125 g/ha ([7]; 125 g ai/ha, scale 0 (no effect) to 100 (complete control), 13 to 15 days): 100% | pest or weed control at 250 g/ha ([7]; 250 g ai/ha, scale 0 to 100 (0 no effect, 100 complete control), 13 to 15 days): 100%
